Values quoted from earlier work, collected in patent US8637495B2, “Osteoarthritis diet formulations” (Nestec S.A., priority 2004, dated 2014).

What was measured:
[1] = orally administered
[2] = system: human patients with OA of the knee

- radiolabel detected in exhaled CO2 [1]: 70%
- retained in tissue [1]: approximately 10%
- fraction non-ionized ([1]; physiologic pH of the small intestine): More than 50%
SMILES: N[C@H]1C(O)O[C@H](CO)[C@@H](O)[C@@H]1O (some centres unmarked) [glucosamine, Glucosamine]
- clinical signs of OA ([2]; 1500 mg glucosamine per day, human, OA of the knee): significant improvement
- long-term progression of OA ([2]; oral, two studies, patients followed for three years): efficiently inhibited
